Experimental data as given in US20150352232A1, “MR IMAGING DIAGNOSTIC AGENT FOR INTRACTABLE NEUROLOGICAL DISEASE” (SHIGA UNIVERSITY OF MEDICAL SCIENCE, priority 2013, published 2015).
“Also recorded” adds a separate entry of the source.

Columns and labels:
senile plaques = biological target: T1, senile plaques (Homo sapiens, UniProt P05067); experiment: 19F-MR image measurement of the brain after tail vein injection (Test Example 1); assay type: in vivo, mouse; conditions: 200 mg/kg tail vein, three-hour measurement beginning five hours after injection, 7T
T1 construct: Spots of amyloid β, which forms senile plaques; tissue Jackson Laboratory; host or cells: brain of live APP/PS1 double transgenic mice
T1 sequence (P05067 672-713 limits assumed): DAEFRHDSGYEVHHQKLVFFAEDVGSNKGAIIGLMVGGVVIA
Method: Compound 1 was weighed out in an amount of 10 mg, and 0.125 ml of 80% Tween-80 was added thereto, followed by dissolution using a glass rod under heating. Subsequently, 0.875 ml of physiological saline was added thereto to prepare a solution for injection (10 mg/ml). The solution was injected in a total amount of 200 mg/kg at […] to the tail vein of each of the genetically modified model mice of Alzheimer's disease (APP/PS1) and the normal wild mice (Wild), which had been subjected to pentobarbital sodium anesthesia. As the genetically modified model mice of Alzheimer's disease (APP/PS1), amyloid precursor protein and presenilin 1 double transgenic mice (APP/PS1, purchased from Jackson Laboratory and bred) were used. After the completion of the injection, under anesthesia, the head of each mouse was continuously evaluated every hour using an MRI apparatus, and all data were added to form images. The brain image of ^19F-MRI was obtained according to the chemical shift imaging method (CSI method). As the MRI apparatus, a 7T Unity Inova MR Scanner (produced by Varian Medical System) was used. Each of the genetically modified model mice of Alzheimer's disease (APP/PS1) and normal wild mice (Wild) were injected with Compound 1. […] FIGS. 1A and 1C are ^19F-MRI images, and FIGS. 1B and 1D are composite photos of ^19F-MRI and ^1H-MRI images.

Aβ oligomers = Aβ oligomers (Homo sapiens, UniProt P05067); experiment: Analysis of binding property using QCM apparatus, sensor with Aβ oligomers fixed (Test Example 3); conditions: final concentration 10 μM in PBS
Chain of Aβ oligomers (P05067 672-713 limits assumed): as above
Method: (§1) Aβ oligomers or Aβ fibrils were fixed to the sensor portion of the QCM apparatus, and immersed in PBS in a glass container. Subsequently, Compound 8 or Compound 1 was added thereto to a final concentration of 10 μM, and a frequency change was recorded from immediately after the addition.

Aβ fibrils = biological target: T2, Aβ fibrils (Homo sapiens, UniProt P05067); experiment: Analysis of binding property using QCM apparatus, sensor with Aβ fibrils fixed (Test Example 3); conditions: final concentration 10 μM in PBS
T2 construct: Aβ oligomers or Aβ fibrils were fixed to the sensor portion of the QCM apparatus
T2 sequence (P05067 672-713 limits assumed): as above
Method: as §1

19F-MR signals presumed to be senile plaques inside of the brain (senile plaques; normal wild mouse (Wild)) | Compound | 19F-MR signals presumed to be senile plaques inside of the brain (senile plaques; genetically modified model mice of Alzheimer's disease (APP/PS1)) | binding to Aβ oligomers (conclusion from QCM) (Aβ oligomers) | binding to Aβ fibrils (conclusion from QCM) (Aβ fibrils) | QCM frequency change, sensor with Aβ fibrils fixed (Fibrillar) compared to Control (Aβ fibrils)
such signals were not detected | CN(C)c1ccc(/C=C/c2nc3ccc(OCCOCCOCCOCCOCCOCCOCCOCC(F)(F)F)cc3o2)cc1 [Compound 1, 6-(3′,6′,9′,12′,15′,18′,21′-heptaoxa-23′,23′,23′-trifluorotricosanyloxy)-2-(4′-dimethylaminostyryl)benzoxazole] | signals presumed to be senile plaques were detected inside of the brain | does not bind to Aβ oligomers | binds to Aβ fibrils | 
 | COC(=O)CCC(C(=O)/C=C/c1ccc(O)c(OC(F)(F)F)c1)C(=O)/C=C/c1ccc(O)c(OC(F)(F)F)c1 [Compound 8] |  | binding to both Aβ oligomers and Aβ fibrils | binding to both Aβ oligomers and Aβ fibrils | significant frequency reduction; also recorded: frequency reduction was observed
